Data reported in PubChem BioAssay AID1259407 (Chemical Carcinogenesis Research Information System (CCRIS), 2018).
Active and inactive are the calls of the source. How the calls were made is not given here.

Test system: CCRIS mutagenicity, Ames/micronucleus/aberration tests
Assay: CCRIS mutagenicity studies

For `C=C(Cl)Cl`, the mutagenic call (End Point: IN VITRO CHROMOSOMAL ABERRATIONS, Test System: CHINESE HAMSTER LUNG (CHL), Metabolic Activation: NONE) was “inactive; negative”, the mutagenic call (End Point: IN VITRO CHROMOSOMAL ABERRATIONS, Test System: CHINESE HAMSTER LUNG (CHL), Metabolic Activation: RAT. LIVER, S-9, KC-400) was “active; positive” and the mutagenic call (End Point: IN VIVO MICRONUCLEUS, Test System: BONE MARROW POLYCHROMATIC ERYTHROCYTES, Species: MOUSE, Strain/Sex: DDY/MALE, Route: GAVAGE (ORAL) ONCE) was “inactive; negative”. For the same compound, the mutagenic call (End Point: IN VIVO MICRONUCLEUS, Test System: BONE MARROW POLYCHROMATIC ERYTHROCYTES, Species: MOUSE, Strain/Sex: DDY/MALE, Route: GAVAGE (ORAL), 4 DOSES AT 24 HR INTERVALS) was “inactive; negative”, the mutagenic call (End Point: IN VIVO MICRONUCLEUS, Test System: MICRONUCLEATED POLYCHROMATIC ERYTHROCYTES, Species: MOUSE, Strain/Sex: ICR/FEMALE (PREGNANT), Route: IP INJECTION ON 18 D OF GESTATION) was “inactive; negative” and the mutagenic call (Test System: AMES SALMONELLA TYPHIMURIUM, Strain/Indicator: RSJ100, Metabolic Activation: NONE, Method: VAPOR PHASE) was “inactive; negative”. For the same compound, the mutagenic call (Test System: AMES SALMONELLA TYPHIMURIUM, Strain/Indicator: TA97, Metabolic Activation: NONE, Method: STANDARD PLATE) was “inactive; negative”, the mutagenic call (Test System: AMES SALMONELLA TYPHIMURIUM, Strain/Indicator: TA97, Metabolic Activation: RAT, LIVER, S-9, AROCLOR 1254, Method: STANDARD PLATE) was “active; positive” and the mutagenic call (Test System: AMES SALMONELLA TYPHIMURIUM, Strain/Indicator: TA98, Metabolic Activation: NONE, Method: STANDARD PLATE) was “inactive; negative”. The mutagenic call (Test System: AMES SALMONELLA TYPHIMURIUM, Strain/Indicator: TA98, Metabolic Activation: RAT, LIVER, S-9, AROCLOR 1254, Method: STANDARD PLATE) was “active; positive”, the mutagenic call (Test System: AMES SALMONELLA TYPHIMURIUM, Strain/Indicator: TA98, Metabolic Activation: RAT, LIVER, S-9, PCB, Method: GAS EXPOSURE) was “inactive; negative” and the mutagenic call (Test System: AMES SALMONELLA TYPHIMURIUM, Strain/Indicator: TA100, Metabolic Activation: MOUSE, LIVER, S-9, PHENOBARBITAL, Method: DESICCATOR) was “active; positive”. The mutagenic call (Test System: AMES SALMONELLA TYPHIMURIUM, Strain/Indicator: TA100, Metabolic Activation: NONE, Method: STANDARD PLATE) was “active; positive”, the mutagenic call (Test System: AMES SALMONELLA TYPHIMURIUM, Strain/Indicator: TA100, Metabolic Activation: RAT, LIVER, S-9, AROCLOR 1254, Method: DESICCATOR) was “active; positive” and the mutagenic call (Test System: AMES SALMONELLA TYPHIMURIUM, Strain/Indicator: TA100, Metabolic Activation: RAT, LIVER, S-9, AROCLOR 1254, Method: STANDARD PLATE) was “active; positive”. The mutagenic call (Test System: AMES SALMONELLA TYPHIMURIUM, Strain/Indicator: TA100, Metabolic Activation: RAT, LIVER, S-9, PCB, Method: GAS EXPOSURE) was “active; positive”, the mutagenic call (Test System: AMES SALMONELLA TYPHIMURIUM, Strain/Indicator: TA100, Metabolic Activation: RAT, LIVER, S-9, PHENOBARBITAL, Method: DESICCATOR) was “active; positive” and the mutagenic call (Test System: AMES SALMONELLA TYPHIMURIUM, Strain/Indicator: TA104, Metabolic Activation: NONE, Method: STANDARD PLATE) was “inactive; negative”. For the same compound, the mutagenic call (Test System: AMES SALMONELLA TYPHIMURIUM, Strain/Indicator: TA104, Metabolic Activation: RAT, LIVER, S-9, AROCLOR 1254, Method: STANDARD PLATE) was “inactive; negative”, the mutagenic call (Test System: AMES SALMONELLA TYPHIMURIUM, Strain/Indicator: TA1530, Metabolic Activation: MOUSE, LIVER, S-9, PHENOBARBITAL, Method: DESICCATOR) was “active; positive” and the mutagenic call (Test System: AMES SALMONELLA TYPHIMURIUM, Strain/Indicator: TA1535, Metabolic Activation: HAMSTER, LIVER, S-9, AROCLOR 1254, Method: DESICCATOR) was “active; positive”. For the same compound, the mutagenic call (Test System: AMES SALMONELLA TYPHIMURIUM, Strain/Indicator: TA1535, Metabolic Activation: MOUSE, KIDNEY, S-9, Method: DESICCATOR) was “active; positive”, the mutagenic call (Test System: AMES SALMONELLA TYPHIMURIUM, Strain/Indicator: TA1535, Metabolic Activation: MOUSE, LIVER, S-9, AROCLOR 1254, Method: DESICCATOR) was “active; positive” and the mutagenic call (Test System: AMES SALMONELLA TYPHIMURIUM, Strain/Indicator: TA1535, Metabolic Activation: RAT, LIVER, S-9, AROCLOR 1254, Method: DESICCATOR) was “active; positive”. For the same compound, the mutagenic call (Test System: AMES SALMONELLA TYPHIMURIUM, Strain/Indicator: TA1535, Metabolic Activation: RAT, LIVER, S-9, PCB, Method: GAS EXPOSURE) was “active; positive”, the mutagenic call (Test System: AMES SALMONELLA TYPHIMURIUM, Strain/Indicator: TA1535, Metabolic Activation: RAT, LIVER, S-9, PHENOBARBITAL, Method: DESICCATOR) was “active; positive” and the mutagenic call (Test System: AMES SALMONELLA TYPHIMURIUM, Strain/Indicator: TA1537, Metabolic Activation: RAT, LIVER, S-9, PCB, Method: GAS EXPOSURE) was “inactive; negative”. The mutagenic call (Test System: AMES SALMONELLA TYPHIMURIUM, Strain/Indicator: TA1538, Metabolic Activation: RAT, LIVER, S-9, PCB, Method: GAS EXPOSURE) was “inactive; negative”, the mutagenic call (Test System: AMES SALMONELLA TYPHIMURIUM, Strain/Indicator: TA2637, Metabolic Activation: RAT, LIVER, S-9, PCB, Method: GAS EXPOSURE) was “inactive; negative” and the mutagenic call (Test System: AMES SALMONELLA TYPHIMURIUM, Strain/Indicator: TPT100, Metabolic Activation: NONE, Method: VAPOR PHASE) was “active; positive”. For the same compound, the mutagenic call (Test System: E. COLI, Strain/Indicator: WP2 UVRA (PKM101), Metabolic Activation: RAT, LIVER, S-9, PCB, Method: GAS EXPOSURE) was “active; positive”, the mutagenic call (Test System: E. COLI, Strain/Indicator: WP2 UVRA, Metabolic Activation: RAT, LIVER, S-9, PCB, Method: GAS EXPOSURE) was “active; positive” and the mutagenic call (Test System: MOUSE LYMPHOMA, Strain/Indicator: L5178Y (TK+/TK-), Metabolic Activation: NONE, Method: SUSPENSION/PLATE) was “inactive; negative”. The mutagenic call (Test System: MOUSE LYMPHOMA, Strain/Indicator: L5178Y (TK+/TK-), Metabolic Activation: RAT, LIVER, S-9, Method: SUSPENSION/PLATE) was “active; positive”.
